Results on 5 compounds are retold here after patent US11746087B1, “C4-carboxylic acid-substituted tryptamine derivatives and methods of using” (priority 2022, dated 2023).

The target in assay [1] is T1, HTR1A (5-HT1A) (Homo sapiens, UniProt P08908).
T1 sequence (P08908 1-422): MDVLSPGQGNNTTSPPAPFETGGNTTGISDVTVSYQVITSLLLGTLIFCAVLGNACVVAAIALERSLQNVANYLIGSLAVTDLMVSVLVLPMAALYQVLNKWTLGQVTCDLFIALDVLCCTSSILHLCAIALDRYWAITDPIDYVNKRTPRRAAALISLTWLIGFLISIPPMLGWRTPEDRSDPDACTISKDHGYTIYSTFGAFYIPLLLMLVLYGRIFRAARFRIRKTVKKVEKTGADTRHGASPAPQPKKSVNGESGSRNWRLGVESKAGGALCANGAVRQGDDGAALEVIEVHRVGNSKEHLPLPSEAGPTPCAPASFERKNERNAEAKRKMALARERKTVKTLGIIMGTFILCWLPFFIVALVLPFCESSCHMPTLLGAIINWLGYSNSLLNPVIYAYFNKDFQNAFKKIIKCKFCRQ
Briefly: EFC-based cAMP secondary messenger assay, antagonist mode. The format is cell-based.

Assay [2] has as its target T2, AVPR1A (Homo sapiens, UniProt P37288). Put plainly: Calcium secondary messenger assay, antagonist mode. The format is cell-based.
Assay [3] deals with T3, CHRM2 (Homo sapiens, UniProt P08172).
T3 sequence (P08172 1-466): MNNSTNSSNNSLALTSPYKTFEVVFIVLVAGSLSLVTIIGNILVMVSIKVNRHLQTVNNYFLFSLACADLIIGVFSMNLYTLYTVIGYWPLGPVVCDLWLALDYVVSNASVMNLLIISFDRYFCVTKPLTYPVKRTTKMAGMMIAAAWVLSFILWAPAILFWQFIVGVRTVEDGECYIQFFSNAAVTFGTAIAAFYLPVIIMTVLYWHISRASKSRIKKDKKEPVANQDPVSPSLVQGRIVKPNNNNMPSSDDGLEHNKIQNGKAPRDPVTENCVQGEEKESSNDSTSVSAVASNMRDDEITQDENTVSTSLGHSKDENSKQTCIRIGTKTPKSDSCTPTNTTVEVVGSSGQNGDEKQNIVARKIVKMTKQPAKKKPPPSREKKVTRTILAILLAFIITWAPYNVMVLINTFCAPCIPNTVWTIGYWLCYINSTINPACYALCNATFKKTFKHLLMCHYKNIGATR
Put plainly: EFC-based cAMP secondary messenger assay, antagonist mode. The format is cell-based.

Assay [4] addresses T4, DRD1 (Homo sapiens, UniProt P21728). Briefly: EFC-based cAMP secondary messenger assay, agonist mode. It counts as cell-based.
Assay [5] concerns the target HTR2B (5-HT2B) (Homo sapiens, UniProt P41595). Briefly: Calcium secondary messenger assay, antagonist mode. It counts as cell-based.
The target of assay [6] is T2, AVPR1A. Put plainly: Calcium secondary messenger assay, agonist mode. It counts as cell-based.
The target of assay [7] is SERT (Homo sapiens, UniProt P31645). Briefly: cell-based. The note with it: transporter.
Chain of SERT (P31645 whole entry): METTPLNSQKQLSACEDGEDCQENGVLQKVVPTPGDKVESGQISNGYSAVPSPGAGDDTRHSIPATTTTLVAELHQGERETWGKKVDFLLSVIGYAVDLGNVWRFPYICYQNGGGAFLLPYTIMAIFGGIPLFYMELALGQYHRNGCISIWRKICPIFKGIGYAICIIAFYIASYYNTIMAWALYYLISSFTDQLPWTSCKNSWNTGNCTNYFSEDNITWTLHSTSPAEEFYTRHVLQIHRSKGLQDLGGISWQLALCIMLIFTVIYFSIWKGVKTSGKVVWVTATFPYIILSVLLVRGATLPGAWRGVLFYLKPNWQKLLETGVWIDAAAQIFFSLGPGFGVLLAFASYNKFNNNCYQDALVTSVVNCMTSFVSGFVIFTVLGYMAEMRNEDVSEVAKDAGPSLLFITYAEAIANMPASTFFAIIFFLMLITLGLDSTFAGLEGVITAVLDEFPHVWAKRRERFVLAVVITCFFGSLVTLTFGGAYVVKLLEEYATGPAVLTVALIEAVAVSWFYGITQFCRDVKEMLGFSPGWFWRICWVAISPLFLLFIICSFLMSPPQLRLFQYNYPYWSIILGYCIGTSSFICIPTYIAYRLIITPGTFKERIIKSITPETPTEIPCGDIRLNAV
Assay [8] deals with HTR1B (5-HTR1B) (Homo sapiens, UniProt P28222). Briefly: EFC-based cAMP secondary messenger assay, agonist mode. The format is cell-based.
Chain of HTR1B (5-HTR1B) (P28222 whole entry): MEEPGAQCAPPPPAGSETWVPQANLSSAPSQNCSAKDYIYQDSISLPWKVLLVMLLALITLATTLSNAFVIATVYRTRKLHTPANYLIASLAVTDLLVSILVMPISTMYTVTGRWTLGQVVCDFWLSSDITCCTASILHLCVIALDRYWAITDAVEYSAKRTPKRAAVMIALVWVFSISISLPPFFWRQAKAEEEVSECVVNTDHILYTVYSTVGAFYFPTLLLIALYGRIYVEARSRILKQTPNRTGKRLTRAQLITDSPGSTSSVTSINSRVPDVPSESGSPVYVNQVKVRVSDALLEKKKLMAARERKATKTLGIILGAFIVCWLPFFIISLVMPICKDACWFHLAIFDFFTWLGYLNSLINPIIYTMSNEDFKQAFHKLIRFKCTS
Assay [9] has as its target T5, ADRA2A (Homo sapiens, UniProt P08913).
T5 sequence (P08913 1-465): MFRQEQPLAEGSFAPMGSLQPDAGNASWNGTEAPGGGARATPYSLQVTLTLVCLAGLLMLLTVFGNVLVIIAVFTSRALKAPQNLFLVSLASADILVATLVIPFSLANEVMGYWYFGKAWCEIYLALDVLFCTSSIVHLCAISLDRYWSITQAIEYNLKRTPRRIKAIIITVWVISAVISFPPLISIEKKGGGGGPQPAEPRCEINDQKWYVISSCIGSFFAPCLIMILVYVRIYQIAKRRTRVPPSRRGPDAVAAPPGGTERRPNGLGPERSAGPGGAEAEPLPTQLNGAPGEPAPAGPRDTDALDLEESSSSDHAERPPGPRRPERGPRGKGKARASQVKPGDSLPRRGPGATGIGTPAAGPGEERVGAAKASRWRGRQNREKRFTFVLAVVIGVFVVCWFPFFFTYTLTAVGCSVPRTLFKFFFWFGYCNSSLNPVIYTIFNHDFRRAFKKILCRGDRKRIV
The assay is described as above. It counts as cell-based.

For assay [10], the target named is OPRD1 (Homo sapiens, UniProt P41143). The assay is described as above. The format is cell-based.
Chain of OPRD1 (P41143 whole entry): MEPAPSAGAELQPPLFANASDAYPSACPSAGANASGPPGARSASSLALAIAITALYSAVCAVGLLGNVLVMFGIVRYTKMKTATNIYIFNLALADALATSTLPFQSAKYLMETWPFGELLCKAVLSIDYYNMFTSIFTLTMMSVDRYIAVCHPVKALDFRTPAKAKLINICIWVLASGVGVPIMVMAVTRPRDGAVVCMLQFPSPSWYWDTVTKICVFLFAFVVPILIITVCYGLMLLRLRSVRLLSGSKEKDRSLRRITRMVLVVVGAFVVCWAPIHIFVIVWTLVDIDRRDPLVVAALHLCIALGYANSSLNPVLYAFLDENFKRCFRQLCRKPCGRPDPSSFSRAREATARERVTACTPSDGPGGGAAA
The target of assay [11] is NMDAR (Homo sapiens, UniProt Q05586+Q13224). Put plainly: Ion channel assay (FLIPR membrane potential), opener. The format is cell-based.
Chain of NMDAR (Q13224 27-1484, other chains not shown): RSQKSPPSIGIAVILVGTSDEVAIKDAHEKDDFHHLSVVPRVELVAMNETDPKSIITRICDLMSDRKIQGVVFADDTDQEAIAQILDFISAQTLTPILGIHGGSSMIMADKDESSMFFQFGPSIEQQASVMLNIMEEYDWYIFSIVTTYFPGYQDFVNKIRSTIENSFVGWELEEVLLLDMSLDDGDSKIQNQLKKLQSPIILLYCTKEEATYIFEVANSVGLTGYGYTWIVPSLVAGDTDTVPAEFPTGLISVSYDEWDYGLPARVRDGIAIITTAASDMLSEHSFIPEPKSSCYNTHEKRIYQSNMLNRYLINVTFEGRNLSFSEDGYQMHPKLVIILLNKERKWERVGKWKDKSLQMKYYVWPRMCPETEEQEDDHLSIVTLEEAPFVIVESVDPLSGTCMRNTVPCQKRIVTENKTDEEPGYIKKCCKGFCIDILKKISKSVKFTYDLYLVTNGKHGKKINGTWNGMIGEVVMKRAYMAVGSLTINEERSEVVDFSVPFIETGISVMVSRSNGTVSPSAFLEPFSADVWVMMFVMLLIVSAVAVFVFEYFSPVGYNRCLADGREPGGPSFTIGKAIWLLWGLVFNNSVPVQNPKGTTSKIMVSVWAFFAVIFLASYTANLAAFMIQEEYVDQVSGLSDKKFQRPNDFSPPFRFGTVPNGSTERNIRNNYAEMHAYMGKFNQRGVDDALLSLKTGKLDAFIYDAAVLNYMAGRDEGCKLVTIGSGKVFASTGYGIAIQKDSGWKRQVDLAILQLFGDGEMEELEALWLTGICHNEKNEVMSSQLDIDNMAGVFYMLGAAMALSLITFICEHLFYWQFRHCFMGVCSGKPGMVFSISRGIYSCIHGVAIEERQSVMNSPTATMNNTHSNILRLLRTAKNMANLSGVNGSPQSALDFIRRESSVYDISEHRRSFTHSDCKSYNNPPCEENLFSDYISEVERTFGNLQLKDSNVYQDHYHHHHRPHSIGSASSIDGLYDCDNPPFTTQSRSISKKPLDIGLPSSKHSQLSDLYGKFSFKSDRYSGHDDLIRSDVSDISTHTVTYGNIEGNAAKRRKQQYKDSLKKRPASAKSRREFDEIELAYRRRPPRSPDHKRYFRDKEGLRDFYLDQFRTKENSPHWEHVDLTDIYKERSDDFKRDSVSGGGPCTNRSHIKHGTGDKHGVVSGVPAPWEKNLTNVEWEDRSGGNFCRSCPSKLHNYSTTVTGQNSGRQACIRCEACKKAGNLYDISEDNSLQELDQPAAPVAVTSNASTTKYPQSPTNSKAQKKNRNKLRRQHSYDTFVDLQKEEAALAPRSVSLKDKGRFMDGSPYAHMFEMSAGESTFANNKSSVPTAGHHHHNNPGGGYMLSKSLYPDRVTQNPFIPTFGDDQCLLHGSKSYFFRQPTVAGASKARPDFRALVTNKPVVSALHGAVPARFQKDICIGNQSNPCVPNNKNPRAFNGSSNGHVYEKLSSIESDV
The target of assay [12] is T4, DRD1. Put plainly: EFC-based cAMP secondary messenger assay, antagonist mode. The format is cell-based.
The target of assay [13] is T6, MAO-A (Homo sapiens, UniProt P21397).
T6 construct: purchased Sigma
T6 sequence (P21397 1-527): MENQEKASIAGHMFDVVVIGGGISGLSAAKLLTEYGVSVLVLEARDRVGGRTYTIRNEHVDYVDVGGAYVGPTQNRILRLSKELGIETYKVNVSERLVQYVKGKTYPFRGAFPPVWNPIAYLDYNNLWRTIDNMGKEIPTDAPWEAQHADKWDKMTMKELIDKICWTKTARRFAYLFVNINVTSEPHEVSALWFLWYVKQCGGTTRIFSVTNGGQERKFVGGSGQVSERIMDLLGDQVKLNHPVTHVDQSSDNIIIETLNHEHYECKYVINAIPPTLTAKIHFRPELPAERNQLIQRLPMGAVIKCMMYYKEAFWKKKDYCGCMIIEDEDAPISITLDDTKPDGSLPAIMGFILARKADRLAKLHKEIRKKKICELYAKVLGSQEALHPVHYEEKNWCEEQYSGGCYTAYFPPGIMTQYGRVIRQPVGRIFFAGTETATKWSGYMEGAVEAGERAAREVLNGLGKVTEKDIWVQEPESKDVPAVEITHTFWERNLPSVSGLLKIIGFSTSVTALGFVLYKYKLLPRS
Briefly: MAO-A enzyme assay (kynuramine). The format is biochemical.

The target in assay [14] is T3, CHRM2. Briefly: EFC-based cAMP secondary messenger assay, agonist mode. The format is cell-based.

T2 sequence (P37288 whole entry): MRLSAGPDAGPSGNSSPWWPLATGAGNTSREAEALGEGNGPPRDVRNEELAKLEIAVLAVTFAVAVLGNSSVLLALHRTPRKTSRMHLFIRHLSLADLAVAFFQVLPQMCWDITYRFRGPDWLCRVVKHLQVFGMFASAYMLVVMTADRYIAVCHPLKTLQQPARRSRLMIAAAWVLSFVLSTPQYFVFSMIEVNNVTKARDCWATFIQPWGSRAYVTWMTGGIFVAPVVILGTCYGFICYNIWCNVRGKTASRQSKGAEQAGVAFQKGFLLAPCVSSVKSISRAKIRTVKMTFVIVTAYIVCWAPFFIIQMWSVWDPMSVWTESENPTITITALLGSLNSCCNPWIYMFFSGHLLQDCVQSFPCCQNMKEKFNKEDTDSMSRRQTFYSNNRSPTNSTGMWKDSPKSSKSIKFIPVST
T4 sequence (P21728 whole entry): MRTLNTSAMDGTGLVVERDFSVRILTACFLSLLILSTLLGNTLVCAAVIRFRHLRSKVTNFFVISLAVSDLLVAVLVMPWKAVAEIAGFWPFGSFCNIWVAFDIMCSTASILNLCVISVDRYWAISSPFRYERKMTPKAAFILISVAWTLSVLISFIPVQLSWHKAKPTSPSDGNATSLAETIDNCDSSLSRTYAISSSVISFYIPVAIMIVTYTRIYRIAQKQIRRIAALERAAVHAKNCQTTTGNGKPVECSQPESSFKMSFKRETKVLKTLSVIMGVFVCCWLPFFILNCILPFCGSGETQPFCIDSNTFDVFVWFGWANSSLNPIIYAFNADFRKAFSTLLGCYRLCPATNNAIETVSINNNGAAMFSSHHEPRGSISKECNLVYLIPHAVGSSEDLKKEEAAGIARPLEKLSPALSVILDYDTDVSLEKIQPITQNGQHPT
Chain of HTR2B (5-HT2B) (P41595 whole entry): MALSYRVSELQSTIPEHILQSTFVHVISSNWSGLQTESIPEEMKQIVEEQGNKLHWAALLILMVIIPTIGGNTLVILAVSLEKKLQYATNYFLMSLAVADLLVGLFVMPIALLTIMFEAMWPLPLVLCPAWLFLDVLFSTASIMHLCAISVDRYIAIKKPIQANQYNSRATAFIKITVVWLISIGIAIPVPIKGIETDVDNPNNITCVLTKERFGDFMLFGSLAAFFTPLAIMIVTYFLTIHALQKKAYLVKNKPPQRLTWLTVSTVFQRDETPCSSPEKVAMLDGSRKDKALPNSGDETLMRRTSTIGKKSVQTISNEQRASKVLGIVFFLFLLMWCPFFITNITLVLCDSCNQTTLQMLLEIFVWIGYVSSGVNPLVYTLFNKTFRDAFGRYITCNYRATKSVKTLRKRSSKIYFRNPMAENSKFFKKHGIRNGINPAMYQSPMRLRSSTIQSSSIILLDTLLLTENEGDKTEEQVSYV

With `CN(C)CCc1c[nH]c2cccc(OC(=O)c3c(F)c(F)c(F)c(F)c3F)c12` [C(VI)], the IC50 in assay [1] was over 100 µM; in assay [2], over 100 µM; in [3], over 100 µM; in assay [5] it was 0.03 µM; in assay [7] (BL (blocker)), 34.3 µM; in assay [12] it was 51.6 µM. The compound also had an IC50 in assay [13] of 20.7 µM. Moreover, the EC50 was over 100 µM in assay [4]; over 100 µM in assay [6]; 0.1 µM in [8]; 65.1 µM in assay [9]; 59.4 µM in [10]; over 100 µM in assay [11]. In [14], this compound showed an EC50 of over 100 µM.

For `CN(C)CCc1c[nH]c2cccc(OC(=O)c3ccc(Br)cc3)c12` [C(I)], the IC50 in assay [1] was over 100 µM; in assay [2] it was over 100 µM; in [3] it was 48.9 µM; in [5] it was 4.94 µM; in assay [7] (BL (blocker)) it was over 100 µM; in assay [12], 24.5 µM. Also, in assay [13], the IC50 is over 100 µM. Further, the concentration giving a half-maximal response (EC50) is over 100 µM in [4]; over 100 µM in assay [6]; 2.14 µM in [8]; over 100 µM in assay [9]; over 100 µM in assay [10]; over 100 µM in assay [11]. Moreover, the EC50 in assay [14] is over 100 µM.

Regarding `CN(C)CCc1c[nH]c2cccc(OC(=O)c3cccc4c3OCCO4)c12` [C(XX)], the IC50 in assay [1] is over 100 µM; in assay [2], over 100 µM; in [3] it was over 100 µM; in assay [5], 0.016 µM; in assay [7] (BL (blocker)), 14.7 µM; in [12] it was 11.1 µM. Also, in assay [13], the IC50 was over 100 µM. In addition, the EC50 is over 100 µM in [4]; over 100 µM in assay [6]; 0.2 µM in [8]; over 100 µM in assay [9]; over 100 µM in assay [10]; over 100 µM in assay [11]. Moreover, the EC50 in assay [14] was over 100 µM.

Turning to `CN(C)CCc1c[nH]c2cccc(OC(=O)CC3CC3)c12` [C(IV)], the IC50 in assay [1] was over 100 µM; in [2], over 100 µM; in [3] it was over 100 µM; in assay [5] it was 0.059 µM; in assay [7] (BL (blocker)) it was 67.9 µM; in [12] it was 32.9 µM. In assay [13], this compound returned an IC50 of 34.4 µM. The EC50 is over 100 µM in assay [4]; over 100 µM in assay [6]; 0.027 µM in assay [8]; over 100 µM in [9]; 37.8 µM in assay [10]; over 100 µM in [11]. For the same compound, the EC50 in assay [14] is over 100 µM.

`COc1ccc(C(=O)Oc2cccc3[nH]cc(CCN(C)C)c23)cc1` [C(V)]: the IC50 in assay [1] was over 100 µM; in [2], over 100 µM; in assay [3], over 100 µM; in [5], 0.012 µM; in [7] (blocker (BL)), over 100 µM; in [12], 12 µM. The same compound displayed an IC50 in [13] of 76 µM. The EC50 in assay [4] is over 100 µM; in assay [6] it was over 100 µM; in assay [8] it was 0.29 µM; in assay [9], over 100 µM; in assay [10], 51.5 µM; in assay [11], over 100 µM. The same compound registered an EC50 in assay [14] of over 100 µM.
